Values joined by “and” are separate entries in the source; they are usually repeats but may differ in a detail not shown here. Equal values may be shown once. Strand notation (5' to 3'): a small letter for the sugar, then the base; units joined by * are phosphorothioate-linked, units joined directly phosphodiester-linked; [ ] holds rarer units or linkages, { } end groups; capitals alone tell only the bases. k = constrained ethyl (cEt); [5mC] = 5-methylcytosine; d = 2'-deoxy (DNA)
system: human SMAD7 mRNA; test: Antisense inhibition of human SMAD7 mRNA expression in Hep3B cells by 3-10-3 cEt gapmers, 10,000 nM, electroporation (Example 2); type: cell-based; details: Hep3B cells, 10,000 nM antisense oligonucleotide, electroporation, approximately 24 hours, RT-PCR primer probe set RTS5062, relative to untreated control cells
How it was run: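 Hep3B cells (20,000/well) were electroporated with 10,000 nM 3-10-3 cEt gapmer (16-mer, phosphorothioate, 5-methylcytosines) and harvested after about 24 h. SMAD7 mRNA quantified by RT-qPCR with primer probe set RTS5062, normalized to total RNA by RiboGreen; percent inhibition relative to untreated cells.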

Row | Substance | % Inhibition [%]
1 | 799919 (antisense kT*k[5mC]*k[5mC]*dT*dA*dA*dG*dA*dG*d[5mC]*dA*dT*dT*kT*kA*kT) [compound 799919] | 0
2 | 800030 (kA*kA*kA*d[5mC]*dA*d[5mC]*dA*dG*dT*dT*d[5mC]*d[5mC]*d[5mC]*kT*kG*kA; antisense) [compound 800030] | 0
3 | 800090 (antisense k[5mC]*kA*k[5mC]*d[5mC]*dT*dA*dT*dG*d[5mC]*dG*dA*dT*dG*kG*kT*k[5mC]) [compound 800090] | 0
4 | 798858 (kG*kG*kT*dA*dA*d[5mC]*dT*dG*d[5mC]*dT*dG*d[5mC]*dG*kG*kT*kT; antisense) [compound 798858] | 46

same assay, conditions: Hep3B cells, electroporation with 10,000 nM antisense oligonucleotide, approximately 24 hours, RTS5062, percent inhibition of SMAD7 mRNA relative to untreated control cells

Row | Substance | % Inhibition [%]
5 | 799841 (antisense kA*kA*kA*dG*dA*dA*dT*dG*dG*dT*dG*dG*dG*kT*kG*k[5mC]) [compound 799841] | 37
6 | 799292 (antisense kT*kG*kA*dT*dG*d[5mC]*dT*dG*dA*dT*dT*dA*dT*kT*kA*kA) [compound 799292] | 19
7 | 799603 (kG*k[5mC]*k[5mC]*d[5mC]*dA*dT*dT*dA*dT*dG*dA*dA*dT*kA*k[5mC]*kA; antisense) [compound 799603] | 52
8 | 799825 (antisense kG*kA*k[5mC]*dT*dT*dG*dG*d[5mC]*dA*dG*d[5mC]*d[5mC]*dA*kA*kG*k[5mC]) [compound 799825] | 0
9 | 799315 (antisense k[5mC]*kA*k[5mC]*d[5mC]*dA*dA*dG*dA*dT*d[5mC]*d[5mC]*dA*dT*k[5mC]*kT*kT) [compound 799315] | 15
10 | 799705 (antisense kA*kA*k[5mC]*dT*dT*dA*dA*dA*dA*dT*dG*dT*dG*k[5mC]*k[5mC]*kA) [compound 799705] | 26

same assay, conditions: Hep3B cells, electroporation with 10,000 nM antisense oligonucleotide, approximately 24 hours, SMAD7 mRNA by RT-PCR (RTS5062), relative to untreated control cells

Row | Substance | % Inhibition [%]
11 | 830167 (antisense kT*kT*kT*dA*d[5mC]*dA*d[5mC]*dA*d[5mC]*d[5mC]*d[5mC]*d[5mC]*dA*kG*kG*kG) [compound 830167] | 39
12 | 830187 (antisense kA*kT*kT*dA*d[5mC]*d[5mC]*d[5mC]*dT*dG*d[5mC]*dT*d[5mC]*dA*kT*kG*kA) [compound 830187] | 31
13 | 830177 (antisense k[5mC]*kA*kG*d[5mC]*d[5mC]*d[5mC]*dT*dT*dT*d[5mC]*dA*d[5mC]*d[5mC]*k[5mC]*k[5mC]*kT) [compound 830177] | 40
14 | 830106 (k[5mC]*kA*kT*dT*dA*dA*dG*d[5mC]*d[5mC]*d[5mC]*dG*d[5mC]*dT*k[5mC]*kT*k[5mC]; antisense) [compound 830106] | 33
15 | 799507 (antisense kA*k[5mC]*kT*d[5mC]*dA*dT*dT*dA*dG*dT*d[5mC]*d[5mC]*d[5mC]*kA*kT*kG) [compound 799507] | 34
16 | 799922 (antisense kA*k[5mC]*kA*d[5mC]*dT*dA*dA*dT*dT*dA*dG*dT*dG*kA*k[5mC]*kT) [compound 799922] | 15
17 | 798714 (antisense kG*kG*k[5mC]*d[5mC]*dG*d[5mC]*d[5mC]*dG*d[5mC]*d[5mC]*dA*d[5mC]*d[5mC]*kG*kG*k[5mC]) [compound 798714] | 0
18 | 799393 (antisense kT*kG*k[5mC]*dT*dT*dT*dG*d[5mC]*dG*dG*dG*d[5mC]*d[5mC]*kA*k[5mC]*kT) [compound 799393] | 56
19 | 799261 (antisense kT*kT*kT*dG*d[5mC]*d[5mC]*d[5mC]*d[5mC]*dA*dA*dA*dA*d[5mC]*kT*k[5mC]*k[5mC]) [compound 799261] | 52
20 | 799982 (k[5mC]*kA*k[5mC]*d[5mC]*dA*d[5mC]*dG*d[5mC]*d[5mC]*dT*d[5mC]*dG*d[5mC]*kT*kA*kA; antisense) [compound 799982] | 0
21 | 798717 (antisense kA*kG*k[5mC]*d[5mC]*d[5mC]*dT*dG*d[5mC]*d[5mC]*d[5mC]*dG*dG*dG*k[5mC]*k[5mC]*kG) [compound 798717] | 18
22 | 830108 (kT*kT*k[5mC]*dA*dT*dT*dA*dA*dG*d[5mC]*d[5mC]*d[5mC]*dG*k[5mC]*kT*k[5mC]; antisense) [compound 830108] | 54
23 | 800004 (kT*kT*kT*dT*dA*dA*dT*dT*dT*dG*dA*dA*dG*kG*k[5mC]*kG; antisense) [compound 800004] | 8
24 | 830069 (kA*kA*kG*dG*dT*dA*dA*dG*d[5mC]*d[5mC]*dA*dG*d[5mC]*kT*k[5mC]*k[5mC]; antisense) [compound 830069] | 51

same assay, conditions: Hep3B cells, electroporation with 10,000 nM antisense oligonucleotide, approximately 24 hours, primer probe set RTS5062, relative to untreated control cells

Row | Substance | % inhibition of SMAD7 mRNA expression | % Inhibition [%]
25 | 799043 (kA*kG*k[5mC]*d[5mC]*dG*dT*dG*d[5mC]*dT*d[5mC]*d[5mC]*dT*dG*kG*k[5mC]*kA; antisense) [compound 799043] | 0% and 10% | 
26 | 799478 (antisense k[5mC]*k[5mC]*k[5mC]*dT*dA*d[5mC]*d[5mC]*dA*d[5mC]*d[5mC]*d[5mC]*d[5mC]*dT*kG*kT*kG) [compound 799478] | 17% | 
27 | 799025 (k[5mC]*kG*k[5mC]*dT*dT*dG*dG*dG*dA*d[5mC]*dT*dG*d[5mC]*kA*kA*kA; antisense) [compound 799025] | 10% | 
28 | 799166 (antisense kA*kA*k[5mC]*dA*dG*dT*dG*dT*d[5mC]*dG*dA*dA*dG*kT*kA*kT) [compound 799166] | 21% | 
29 | 799160 (antisense kA*k[5mC]*kG*dA*dG*dT*dG*dT*dA*dT*dG*dA*dG*kT*kT*kG) [compound 799160] |  | 61
30 | 799186 (antisense k[5mC]*kT*kT*dG*dT*dT*d[5mC]*dA*dT*dT*dT*dA*dA*kA*k[5mC]*k[5mC]) [compound 799186] | 31% | 
31 | 798990 (antisense kG*kA*k[5mC]*dA*dA*dG*dT*dG*dA*dA*dA*dT*dG*kA*kT*kG) [compound 798990] | 39% | 
32 | 772708 (kA*kA*kA*dG*dT*dG*d[5mC]*dA*dT*d[5mC]*dT*dT*dT*kT*k[5mC]*kT; antisense) [compound 772708] | 0% | 
33 | 798996 (antisense k[5mC]*kA*k[5mC]*dA*d[5mC]*dT*d[5mC]*dA*d[5mC]*dA*d[5mC]*dT*d[5mC]*kA*k[5mC]*kA) [compound 798996] |  | 49
34 | 799385 (antisense kT*kG*k[5mC]*d[5mC]*d[5mC]*dA*dA*d[5mC]*d[5mC]*d[5mC]*dT*dT*d[5mC]*kA*k[5mC]*kT) [compound 799385] | 31% | 

same assay, conditions: Hep3B cells, electroporation, 10,000 nM antisense oligonucleotide, approximately 24 hours, RTS5062, relative to untreated control cells

Row | Substance | % inhibition of SMAD7 mRNA expression [%]
35 | 799517 (antisense k[5mC]*kT*kT*dA*dA*dG*dT*dA*dG*dA*dG*d[5mC]*dA*kA*kA*kG) [compound 799517] | 0
36 | 799780 (k[5mC]*k[5mC]*kA*dT*dA*dA*dA*d[5mC]*dA*dA*dA*d[5mC]*d[5mC]*kA*k[5mC]*kA; antisense) [compound 799780] | 28
37 | 799306 (antisense kA*kA*kA*d[5mC]*dA*dG*d[5mC]*dA*dT*dG*dA*dA*dA*kG*kA*k[5mC]) [compound 799306] | 27
38 | 799700 (antisense k[5mC]*kA*kT*dG*dA*d[5mC]*dA*dG*d[5mC]*dA*dA*dA*dG*k[5mC]*kA*kA) [compound 799700] | 49
39 | 799795 (k[5mC]*k[5mC]*kA*dG*dA*dT*dG*dT*dT*dT*d[5mC]*d[5mC]*d[5mC]*k[5mC]*kA*k[5mC]; antisense) [compound 799795] | 66

same assay, conditions: SMAD7 mRNA, Hep3B cells, 10,000 nM antisense oligonucleotide, electroporation, approximately 24 hours, primer probe set RTS5062, relative to untreated control cells

Row | Substance | % Inhibition [%]
40 | 829783 (antisense kG*kA*kT*d[5mC]*d[5mC]*dG*dG*d[5mC]*d[5mC]*dA*d[5mC]*d[5mC]*dT*kG*kA*kA) [compound 829783] | 52
41 | 772582 (k[5mC]*kT*kG*dA*dA*dA*dG*d[5mC]*d[5mC]*d[5mC]*d[5mC]*d[5mC]*d[5mC]*kA*kG*kG; antisense) [compound 772582] | 34
42 | 829781 (antisense k[5mC]*k[5mC]*kG*dG*d[5mC]*d[5mC]*dA*d[5mC]*d[5mC]*dT*dG*dA*dA*k[5mC]*kA*k[5mC]) [compound 829781] | 31

same assay, conditions: SMAD7 mRNA, Hep3B cells, electroporation with 10,000 nM antisense oligonucleotide, approximately 24 hours, primer probe set RTS5062, relative to untreated control cells

Row | Substance | % Inhibition [%]
43 | 829840 (kG*kG*kA*d[5mC]*dA*d[5mC]*dA*dG*dT*dA*dG*dA*dG*k[5mC]*k[5mC]*kT; antisense) [compound 829840] | 0
44 | 830000 (kA*k[5mC]*kT*dG*dT*dT*dT*dG*dT*d[5mC]*dT*dT*dA*kG*k[5mC]*kT; antisense) [compound 830000] | 51
45 | 829795 (kT*kG*kA*dT*d[5mC]*dT*dT*d[5mC]*d[5mC]*d[5mC]*dG*dT*dA*kA*kG*kA; antisense) [compound 829795] | 34
46 | 829969 (kG*kA*kA*d[5mC]*d[5mC]*d[5mC]*d[5mC]*d[5mC]*dA*dG*dG*dG*dA*kA*kT*kG; antisense) [compound 829969] | 17
47 | 829854 (antisense kG*k[5mC]*kT*dG*dA*d[5mC]*dT*d[5mC]*dT*dT*dG*dT*dT*kG*kT*k[5mC]) [compound 829854] | 25
48 | 829875 (antisense k[5mC]*kG*kG*dG*dT*dT*dG*dT*d[5mC]*d[5mC]*dA*dG*dT*kG*kT*kG) [compound 829875] | 52
49 | 829939 (kA*k[5mC]*kA*dT*dT*d[5mC]*dA*dG*d[5mC]*dT*dA*dG*dG*kT*kG*kA; antisense) [compound 829939] | 34
